Holding throughout (format): biochemical
One assay addresses T1, Fyn (Homo sapiens, UniProt P06241).
T1 construct: Kinases are expressed as either kinase domains or full length constructs; made in house
The assay can be described thus: Kinase inhibition assay (33P transfer), Fyn. Conditions: read-out: Fyn-1. The gist of the method: (§1)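 Each enzyme, purified to near homogeneity by affinity chromatography, was incubated with ATP carrying 33P and a substrate polymer fixed to the plate. Unbound label was removed with dilute phosphoric acid (0.5%) before adding scintillant and counting. Potency is given as the compound level cutting label uptake by 50%.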

In a further assay the target is T2, Itk (Homo sapiens, UniProt Q08881).
T2 construct: Kinases are expressed as either kinase domains or full length constructs; made in house
T2 sequence (Q08881 1-620): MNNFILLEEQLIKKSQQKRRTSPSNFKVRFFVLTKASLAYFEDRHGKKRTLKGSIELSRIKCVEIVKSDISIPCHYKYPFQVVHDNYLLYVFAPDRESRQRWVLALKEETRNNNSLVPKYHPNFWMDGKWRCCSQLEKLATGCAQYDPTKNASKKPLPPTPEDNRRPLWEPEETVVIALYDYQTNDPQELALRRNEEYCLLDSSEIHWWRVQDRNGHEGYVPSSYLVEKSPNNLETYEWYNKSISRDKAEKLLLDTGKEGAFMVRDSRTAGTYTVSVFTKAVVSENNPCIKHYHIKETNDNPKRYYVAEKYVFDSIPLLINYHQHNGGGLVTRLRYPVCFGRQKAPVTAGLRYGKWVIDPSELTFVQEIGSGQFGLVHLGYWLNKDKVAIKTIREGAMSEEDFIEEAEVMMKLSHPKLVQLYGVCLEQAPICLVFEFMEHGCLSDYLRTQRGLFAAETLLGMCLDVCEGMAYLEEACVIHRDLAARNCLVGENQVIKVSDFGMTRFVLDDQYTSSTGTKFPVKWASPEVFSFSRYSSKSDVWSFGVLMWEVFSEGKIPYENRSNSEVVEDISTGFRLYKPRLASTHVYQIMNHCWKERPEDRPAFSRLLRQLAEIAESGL
The assay can be described thus: Kinase inhibition assay (33P transfer), Itk. Particulars: Table 3; read-out: Itk-1. The gist of the method: as §1

Another assay deals with T3, Kdr (Homo sapiens, UniProt P35968).
T3 construct: Kinases are expressed as either kinase domains or full length constructs; made in house
Briefly: Kinase inhibition assay (33P transfer), Kdr. Particulars: Table 3; read-out: KDR-1. The gist of the method:
(§2)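 Activity was read as 33P incorporation, counted by liquid scintillation after a 0.5% phosphoric acid wash, into poly(Glu,Tyr) 4:1 or poly(Arg,Ser) 3:1 substrates coated on plates. Enzymes were tagged (GST or polyHis) kinase domains or full-length proteins from bacterial or insect-cell expression, sometimes with regulatory polypeptides.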

The target in a further assay is T4, Flt-1 (Homo sapiens, UniProt P17948).
T4 construct: Kinases are expressed as either kinase domains or full length constructs; made in house
The assay can be described thus: Kinase inhibition assay (33P transfer), Flt-1. The gist of the method: as §1

The next assay deals with T5, c-Met (Homo sapiens, UniProt P08581).
T5 construct: Kinases are expressed as either kinase domains or full length constructs; made in house
The assay can be described thus: Kinase inhibition assay (33P transfer), c-Met. Conditions: Table 2, kinase inhibition class; read-out: Met-1. The gist of the method: as §1

Another assay has as its target T6, AKT (Homo sapiens, UniProt Q9Y243).
T6 construct: Kinases are expressed as either kinase domains or full length constructs; made in house
Briefly: Kinase inhibition assay (33P transfer), AKT. Conditions: Table 2, kinase inhibition class; read-out: AKT3-1. The gist of the method: as §2

A further assay concerns the target T7, IGFR-1 (Homo sapiens, UniProt P08069).
T7 construct: Kinases are expressed as either kinase domains or full length constructs; made in house
The assay can be described thus: Kinase inhibition assay (33P transfer), IGFR-1. Particulars: Table 2, kinase inhibition class.

In a further assay the target is T8, PDGFRB (Homo sapiens, UniProt P09619).
T8 construct: Kinases are expressed as either kinase domains or full length constructs; made in house
The assay can be described thus: Kinase inhibition assay (33P transfer), PDGFRB. Particulars: read-out: PDGFRB-1.

A further assay addresses T9, ErbB4 (Homo sapiens, UniProt Q15303).
T9 construct: Kinases are expressed as either kinase domains or full length constructs; made in house
Briefly: Kinase inhibition assay (33P transfer), ErbB4. Particulars: read-out: ErbB4-1.

For another assay, the target named is T10, FGFR1 (Homo sapiens, UniProt P11362).
T10 construct: Kinases are expressed as either kinase domains or full length constructs; made in house
Briefly: Kinase inhibition assay (33P transfer), FGFR1. Conditions: read-out: FGFR1-1.

Molecules are shown by their SMILES.

T9 sequence (Q15303 26-1308, species assumed): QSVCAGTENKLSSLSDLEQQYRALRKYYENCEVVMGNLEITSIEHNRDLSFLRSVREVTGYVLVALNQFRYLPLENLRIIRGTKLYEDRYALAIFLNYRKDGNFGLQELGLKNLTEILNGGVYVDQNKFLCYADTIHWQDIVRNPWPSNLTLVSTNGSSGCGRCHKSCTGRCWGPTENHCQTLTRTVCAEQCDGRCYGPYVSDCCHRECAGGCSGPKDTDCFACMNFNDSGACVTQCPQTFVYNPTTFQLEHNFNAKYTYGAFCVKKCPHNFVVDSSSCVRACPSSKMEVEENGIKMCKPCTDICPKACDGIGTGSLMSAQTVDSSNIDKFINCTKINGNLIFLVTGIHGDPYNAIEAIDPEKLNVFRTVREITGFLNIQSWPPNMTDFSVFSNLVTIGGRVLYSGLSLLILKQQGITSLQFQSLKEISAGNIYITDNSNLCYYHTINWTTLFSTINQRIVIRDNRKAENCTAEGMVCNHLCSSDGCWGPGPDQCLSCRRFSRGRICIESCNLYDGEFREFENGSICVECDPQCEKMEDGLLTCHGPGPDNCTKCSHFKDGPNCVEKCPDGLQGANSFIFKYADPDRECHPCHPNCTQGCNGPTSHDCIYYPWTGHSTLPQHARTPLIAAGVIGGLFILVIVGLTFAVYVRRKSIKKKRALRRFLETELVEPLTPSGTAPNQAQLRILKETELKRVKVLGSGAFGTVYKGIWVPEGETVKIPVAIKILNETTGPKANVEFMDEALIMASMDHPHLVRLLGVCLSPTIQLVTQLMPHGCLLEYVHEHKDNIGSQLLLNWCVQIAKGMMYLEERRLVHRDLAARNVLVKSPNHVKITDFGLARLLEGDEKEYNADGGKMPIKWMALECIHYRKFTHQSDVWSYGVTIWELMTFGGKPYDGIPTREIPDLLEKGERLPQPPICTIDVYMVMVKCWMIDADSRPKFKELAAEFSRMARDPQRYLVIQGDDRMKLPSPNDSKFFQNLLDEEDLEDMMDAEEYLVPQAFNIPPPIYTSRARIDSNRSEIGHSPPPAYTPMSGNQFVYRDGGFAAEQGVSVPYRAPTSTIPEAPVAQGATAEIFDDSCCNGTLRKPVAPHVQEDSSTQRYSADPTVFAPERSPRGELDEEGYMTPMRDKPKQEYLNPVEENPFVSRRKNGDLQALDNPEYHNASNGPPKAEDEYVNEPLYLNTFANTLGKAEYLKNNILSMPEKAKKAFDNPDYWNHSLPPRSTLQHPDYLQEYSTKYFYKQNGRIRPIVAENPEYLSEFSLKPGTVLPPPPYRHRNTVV
T5 sequence (P08581 25-1390): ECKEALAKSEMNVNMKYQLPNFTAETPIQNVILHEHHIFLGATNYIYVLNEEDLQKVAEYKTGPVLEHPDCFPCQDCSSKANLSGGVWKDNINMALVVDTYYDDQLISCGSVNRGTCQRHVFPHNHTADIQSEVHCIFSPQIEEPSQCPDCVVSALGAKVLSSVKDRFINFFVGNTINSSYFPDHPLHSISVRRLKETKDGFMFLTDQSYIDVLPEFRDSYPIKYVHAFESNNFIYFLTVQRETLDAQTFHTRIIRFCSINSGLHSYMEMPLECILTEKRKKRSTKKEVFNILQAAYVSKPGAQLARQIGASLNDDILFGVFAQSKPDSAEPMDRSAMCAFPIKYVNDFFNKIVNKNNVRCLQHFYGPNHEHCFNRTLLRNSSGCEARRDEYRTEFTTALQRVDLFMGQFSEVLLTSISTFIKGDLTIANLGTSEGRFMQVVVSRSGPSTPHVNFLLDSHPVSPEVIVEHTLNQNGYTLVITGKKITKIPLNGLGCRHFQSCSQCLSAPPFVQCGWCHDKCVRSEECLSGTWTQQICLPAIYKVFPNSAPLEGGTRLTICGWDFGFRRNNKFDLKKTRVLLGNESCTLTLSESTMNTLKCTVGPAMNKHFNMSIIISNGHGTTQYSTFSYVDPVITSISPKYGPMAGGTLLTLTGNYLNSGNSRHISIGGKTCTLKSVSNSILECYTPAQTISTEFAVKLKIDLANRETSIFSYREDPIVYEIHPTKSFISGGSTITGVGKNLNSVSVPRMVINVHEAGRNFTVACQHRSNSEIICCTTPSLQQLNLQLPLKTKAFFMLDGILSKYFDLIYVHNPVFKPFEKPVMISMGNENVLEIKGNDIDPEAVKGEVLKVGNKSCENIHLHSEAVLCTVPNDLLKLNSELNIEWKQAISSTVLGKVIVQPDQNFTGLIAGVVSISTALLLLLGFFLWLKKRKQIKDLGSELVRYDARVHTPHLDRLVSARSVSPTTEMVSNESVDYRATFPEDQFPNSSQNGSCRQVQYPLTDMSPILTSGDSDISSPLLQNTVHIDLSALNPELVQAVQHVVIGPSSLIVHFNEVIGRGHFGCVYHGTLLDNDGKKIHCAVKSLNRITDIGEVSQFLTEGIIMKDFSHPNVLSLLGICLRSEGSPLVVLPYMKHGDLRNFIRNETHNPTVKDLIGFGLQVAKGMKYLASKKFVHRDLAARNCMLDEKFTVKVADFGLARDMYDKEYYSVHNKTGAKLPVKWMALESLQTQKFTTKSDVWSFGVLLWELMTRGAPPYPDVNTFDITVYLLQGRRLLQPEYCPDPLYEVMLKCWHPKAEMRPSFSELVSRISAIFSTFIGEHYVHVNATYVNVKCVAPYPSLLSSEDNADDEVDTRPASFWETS
T8 sequence (P09619 33-1106, species assumed): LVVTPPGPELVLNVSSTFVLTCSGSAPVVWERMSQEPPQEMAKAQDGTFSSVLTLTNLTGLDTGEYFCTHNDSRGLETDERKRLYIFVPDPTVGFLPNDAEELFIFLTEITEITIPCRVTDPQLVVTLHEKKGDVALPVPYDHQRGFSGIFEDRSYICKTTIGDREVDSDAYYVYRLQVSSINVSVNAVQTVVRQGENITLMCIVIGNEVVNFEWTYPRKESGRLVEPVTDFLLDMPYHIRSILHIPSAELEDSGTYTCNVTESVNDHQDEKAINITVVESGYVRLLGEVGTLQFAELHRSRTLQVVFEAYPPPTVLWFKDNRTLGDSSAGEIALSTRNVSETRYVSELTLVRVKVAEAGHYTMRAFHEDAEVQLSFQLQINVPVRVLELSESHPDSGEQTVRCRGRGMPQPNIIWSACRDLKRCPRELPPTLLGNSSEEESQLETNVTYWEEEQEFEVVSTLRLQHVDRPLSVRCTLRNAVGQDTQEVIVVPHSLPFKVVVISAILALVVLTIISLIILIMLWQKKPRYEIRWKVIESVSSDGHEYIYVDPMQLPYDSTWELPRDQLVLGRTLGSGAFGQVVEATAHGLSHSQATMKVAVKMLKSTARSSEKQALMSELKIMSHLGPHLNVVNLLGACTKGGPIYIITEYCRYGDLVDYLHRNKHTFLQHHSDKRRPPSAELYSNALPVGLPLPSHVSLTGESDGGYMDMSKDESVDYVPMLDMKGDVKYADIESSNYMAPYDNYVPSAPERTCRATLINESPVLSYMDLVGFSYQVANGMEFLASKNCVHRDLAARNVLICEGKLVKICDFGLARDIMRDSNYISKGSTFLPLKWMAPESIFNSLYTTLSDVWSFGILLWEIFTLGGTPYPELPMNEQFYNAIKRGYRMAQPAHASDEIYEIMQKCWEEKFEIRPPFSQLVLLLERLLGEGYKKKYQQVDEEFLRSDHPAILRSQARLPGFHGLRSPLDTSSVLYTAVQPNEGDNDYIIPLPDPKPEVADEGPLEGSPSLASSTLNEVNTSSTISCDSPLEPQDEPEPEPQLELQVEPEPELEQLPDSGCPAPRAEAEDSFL
T4 sequence (P17948 27-1338, species assumed): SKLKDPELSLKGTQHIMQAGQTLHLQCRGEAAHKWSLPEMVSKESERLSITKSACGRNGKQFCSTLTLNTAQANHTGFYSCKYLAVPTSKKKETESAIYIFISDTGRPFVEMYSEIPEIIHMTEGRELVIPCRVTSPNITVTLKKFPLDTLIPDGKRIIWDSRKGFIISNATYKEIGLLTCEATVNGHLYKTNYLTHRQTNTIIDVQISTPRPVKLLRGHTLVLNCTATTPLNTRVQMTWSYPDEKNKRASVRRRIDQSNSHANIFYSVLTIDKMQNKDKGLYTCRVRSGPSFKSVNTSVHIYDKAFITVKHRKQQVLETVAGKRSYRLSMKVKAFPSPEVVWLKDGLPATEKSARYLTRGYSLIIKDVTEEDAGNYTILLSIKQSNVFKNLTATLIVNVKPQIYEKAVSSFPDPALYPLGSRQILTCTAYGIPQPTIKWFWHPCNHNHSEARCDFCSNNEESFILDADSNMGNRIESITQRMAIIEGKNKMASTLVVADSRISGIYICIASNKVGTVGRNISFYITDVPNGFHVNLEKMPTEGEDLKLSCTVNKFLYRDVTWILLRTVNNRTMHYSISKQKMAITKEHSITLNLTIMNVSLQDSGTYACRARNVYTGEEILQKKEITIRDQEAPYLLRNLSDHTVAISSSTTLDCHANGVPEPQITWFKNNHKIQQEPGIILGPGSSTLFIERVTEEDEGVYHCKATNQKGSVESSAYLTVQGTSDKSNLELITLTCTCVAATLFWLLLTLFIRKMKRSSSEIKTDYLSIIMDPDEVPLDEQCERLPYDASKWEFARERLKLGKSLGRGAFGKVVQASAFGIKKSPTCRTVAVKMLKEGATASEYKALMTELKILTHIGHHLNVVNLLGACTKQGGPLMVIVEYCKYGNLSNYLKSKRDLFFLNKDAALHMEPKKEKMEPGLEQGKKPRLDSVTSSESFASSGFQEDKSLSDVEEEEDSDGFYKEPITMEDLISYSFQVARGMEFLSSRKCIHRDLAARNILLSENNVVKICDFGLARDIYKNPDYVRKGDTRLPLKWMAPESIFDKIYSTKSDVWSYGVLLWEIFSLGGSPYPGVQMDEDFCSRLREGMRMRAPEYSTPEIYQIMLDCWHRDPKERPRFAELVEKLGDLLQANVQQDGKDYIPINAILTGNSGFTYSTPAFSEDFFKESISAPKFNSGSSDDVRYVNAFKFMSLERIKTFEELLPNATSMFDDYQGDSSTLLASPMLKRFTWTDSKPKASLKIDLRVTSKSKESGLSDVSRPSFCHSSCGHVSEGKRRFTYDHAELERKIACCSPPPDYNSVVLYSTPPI

As for `c1coc(-c2cc(Nc3ncnc(Nc4ccc(N5CCOCC5)cc4)n3)[nH]n2)c1` [Compound 340], the IC50 at Fyn is 0.989 to 5.93 µM; on Itk, above 11.1 µM; at Kdr, below 0.989 µM; on Flt-1, below 0.989 µM; at c-Met, below 0.989 µM; on AKT, 5.93 to 8.65 µM. Besides, the IC50 on IGFR-1 is below 0.989 µM; on PDGFRB, 8.65 to 11.1 µM; at ErbB4, 0.989 to 5.93 µM; on FGFR1 it was 0.989 to 5.93 µM.

Consider `CCOc1ccc(Nc2ncnc(Nc3ccc(OCc4ccccc4)cc3)n2)cc1OCC` [Compound 170], for which the IC50 on Fyn is above 9.84 µM; at Itk it was above 9.84 µM; at Kdr, 0.874 to 5.25 µM; against Flt-1, above 9.84 µM; at c-Met, 5.25 to 7.65 µM; on AKT it was 0.874 to 5.25 µM. Also, the IC50 on IGFR-1 was above 9.84 µM; at PDGFRB, above 9.84 µM; at ErbB4 it was 7.65 to 9.84 µM; on FGFR1 it was above 9.84 µM.

In the case of `COc1cc(Nc2ncnc(Nc3nnc(-c4ccccc4)[nH]3)n2)cc(OC)c1OC` [Compound 311], the IC50 at Fyn was above 10.7 µM; on Itk, above 10.7 µM; on Kdr it was 0.951 to 5.71 µM; at Flt-1, above 10.7 µM; at c-Met it was 0.951 to 5.71 µM; at AKT, above 10.7 µM. Further, the IC50 on IGFR-1, on PDGFRB, at ErbB4 and at FGFR1 was above 10.7 µM in each case.

As for `COc1cc(Nc2ncnc(-n3c(=O)[nH]c4ccccc43)n2)cc(OC)c1OC` [Compound 325], the IC50 is 6.09 to 8.87 µM on Fyn; above 11.4 µM on Itk; below 1.01 µM at Kdr; below 1.01 µM against Flt-1; above 11.4 µM on c-Met; above 11.4 µM on AKT. In addition, the IC50 was above 11.4 µM on IGFR-1, below 1.01 µM on PDGFRB, 1.01 to 6.09 µM on ErbB4 and above 11.4 µM at FGFR1.

`COc1cc(Nc2ncnc(-n3ncc4ccccc43)n2)cc(OC)c1OC` [Compound 240]: the IC50 is 1.06 to 6.34 µM on Fyn; above 11.9 µM at Itk; 1.06 to 6.34 µM on Kdr; 1.06 to 6.34 µM against Flt-1; above 11.9 µM on c-Met; above 11.9 µM on AKT. In addition, the IC50 against IGFR-1 is above 11.9 µM; on PDGFRB it was below 1.06 µM; on ErbB4, above 11.9 µM; on FGFR1 it was 6.34 to 9.25 µM.

Consider `COc1cc(Nc2ncnc(Nc3ccc(Br)c(Cl)c3)n2)cc(OC)c1OC` [Compound 936], for which the IC50 at Fyn was below 0.857 µM; on Itk, 5.14 to 7.5 µM; at Kdr, 0.857 to 5.14 µM; at Flt-1, 0.857 to 5.14 µM; at c-Met, above 9.64 µM; at AKT, above 9.64 µM. The IC50 on IGFR-1 was below 0.857 µM; on PDGFRB, below 0.857 µM; on ErbB4, 0.857 to 5.14 µM; at FGFR1, 0.857 to 5.14 µM.

For `COc1cc(Nc2ncnc(Nc3cc(C(C)(C)C)[nH]n3)n2)cc(OC)c1OC` [Compound 313], the IC50 on Fyn was 1 to 6.01 µM; at Itk, 6.01 to 8.76 µM; on Kdr, 1 to 6.01 µM; at Flt-1 it was 6.01 to 8.76 µM; at c-Met, below 1 µM; on AKT it was above 11.3 µM. Also, the IC50 at IGFR-1 is below 1 µM; at PDGFRB, 1 to 6.01 µM; on ErbB4, below 1 µM; on FGFR1, 1 to 6.01 µM.

In the case of `COc1cc(Nc2ncnc(Nc3ccc(C)c(NS(C)(=O)=O)c3)n2)cc(OC)c1OC` [Compound 305], the IC50 was below 0.869 µM at Fyn; above 9.77 µM at Itk; below 0.869 µM at Kdr; 0.869 to 5.21 µM at Flt-1; 7.6 to 9.77 µM on c-Met; above 9.77 µM at AKT. Moreover, the IC50 at IGFR-1 is 5.21 to 7.6 µM; at PDGFRB it was below 0.869 µM; at ErbB4, 0.869 to 5.21 µM; on FGFR1, 0.869 to 5.21 µM.

Consider `COc1cc(Nc2ncnc(Nc3ccc(Cl)cc3F)n2)cc(OC)c1OC` [Compound 306], for which the IC50 at Fyn was 0.986 to 5.91 µM; at Itk, above 11.1 µM; on Kdr, below 0.986 µM; on Flt-1 it was 0.986 to 5.91 µM; at c-Met, 5.91 to 8.62 µM; on AKT it was above 11.1 µM. Moreover, the IC50 was below 0.986 µM against IGFR-1, below 0.986 µM at PDGFRB, above 11.1 µM at ErbB4 and 0.986 to 5.91 µM at FGFR1.

`COc1cc(Nc2ncnc(N(CC(=O)O)c3ccc4c(c3)OCO4)n2)cc(OC)c1OC` [Compound 319]: the IC50 at Fyn, at Itk, at Kdr, at Flt-1, at c-Met and on AKT was above 9.88 µM each time. In addition, the IC50 against IGFR-1, at PDGFRB, at ErbB4 and on FGFR1 was above 9.88 µM in each case.

For the molecule `COc1cc(Nc2ncnc(N(C/C=C/c3ccccc3)c3ccc(Cl)cc3)n2)cc(OC)c1OC` [Compound 56], the IC50 at Fyn is above 8.93 µM; on Itk, above 8.93 µM; on Kdr, 0.794 to 4.76 µM; against Flt-1, 4.76 to 6.94 µM; on c-Met, above 8.93 µM; on AKT it was above 8.93 µM. Also, the IC50 against IGFR-1 was 6.94 to 8.93 µM; on PDGFRB, above 8.93 µM; at ErbB4 it was above 8.93 µM; at FGFR1, 4.76 to 6.94 µM.

In the case of `COc1cc(Nc2ncnc(N3CCc4cc([N+](=O)[O-])ccc43)n2)cc(OC)c1OC` [Compound 187], the IC50 is above 10.6 µM at Fyn; above 10.6 µM at Itk; 0.942 to 5.65 µM on Kdr; above 10.6 µM against Flt-1; above 10.6 µM on c-Met; above 10.6 µM on AKT. Moreover, the IC50 was above 10.6 µM on IGFR-1, above 10.6 µM on PDGFRB, 5.65 to 8.25 µM on ErbB4 and above 10.6 µM on FGFR1.

Take `COc1cc(Nc2ncnc(Nc3nc4ccccc4n3C)n2)cc(OC)c1OC` [Compound 938]: the IC50 on Fyn was above 11 µM; on Itk, above 11 µM; on Kdr it was below 0.982 µM; against Flt-1, 0.982 to 5.89 µM; at c-Met it was above 11 µM; at AKT, above 11 µM. Further, the IC50 is 5.89 to 8.59 µM on IGFR-1, 0.982 to 5.89 µM on PDGFRB, 5.89 to 8.59 µM at ErbB4 and 0.982 to 5.89 µM on FGFR1.

With `COc1ccc(Nc2ncnc(Nc3ccc4[nH]ccc4c3)n2)cc1OC` [Compound 115], the IC50 is 6.62 to 9.66 µM at Fyn; 9.66 to 12.4 µM at Itk; 1.1 to 6.62 µM at Kdr; 1.1 to 6.62 µM against Flt-1; above 12.4 µM on c-Met; 1.1 to 6.62 µM on AKT. The IC50 is 1.1 to 6.62 µM against IGFR-1, above 12.4 µM on PDGFRB, above 12.4 µM at ErbB4 and 6.62 to 9.66 µM on FGFR1.

Consider `COc1ccc2c(c1)c(CCNC(C)=O)cn2-c1ncnc(Nc2cc(OC)c(OC)c(OC)c2)n1` [Compound 339], for which the IC50 was above 9.14 µM on Fyn; above 9.14 µM on Itk; below 0.812 µM at Kdr; above 9.14 µM at Flt-1; above 9.14 µM on c-Met; above 9.14 µM on AKT. The IC50 is above 9.14 µM against IGFR-1, below 0.812 µM on PDGFRB, above 9.14 µM at ErbB4 and above 9.14 µM at FGFR1.

Take `COCCOc1ccc(Nc2ncnc(-n3c(N)nc4ccccc43)n2)cc1OC` [Compound 287]: the IC50 was above 11 µM at Fyn; 5.89 to 8.59 µM on Itk; below 0.982 µM at Kdr; above 11 µM against Flt-1; above 11 µM on c-Met; above 11 µM on AKT. The IC50 is below 0.982 µM at IGFR-1, above 11 µM at PDGFRB, above 11 µM on ErbB4 and 0.982 to 5.89 µM on FGFR1.

These data come from patent US7074789B2, “Kinase inhibitors” (Amgen Inc., priority 1999, dated 2006).
